Measured values from patent US20110130380A1, “Heteroaryl Kinase Inhibitors” (priority 2009, published 2011).

biological target: Cdk9/cyclinT1 (Homo sapiens, UniProt P50750); experiment: Cdk9/cyclinT1 IMAP Protocol (fluorescence polarization kinase assay); details: Cdk9_cyclinT1_IC50, Table V; generated using one of the two Cdk9/cyclinT1 assays (IMAP or Alpha Screen), not stated which; ATP 6 uM
Sequence (P50750 whole entry): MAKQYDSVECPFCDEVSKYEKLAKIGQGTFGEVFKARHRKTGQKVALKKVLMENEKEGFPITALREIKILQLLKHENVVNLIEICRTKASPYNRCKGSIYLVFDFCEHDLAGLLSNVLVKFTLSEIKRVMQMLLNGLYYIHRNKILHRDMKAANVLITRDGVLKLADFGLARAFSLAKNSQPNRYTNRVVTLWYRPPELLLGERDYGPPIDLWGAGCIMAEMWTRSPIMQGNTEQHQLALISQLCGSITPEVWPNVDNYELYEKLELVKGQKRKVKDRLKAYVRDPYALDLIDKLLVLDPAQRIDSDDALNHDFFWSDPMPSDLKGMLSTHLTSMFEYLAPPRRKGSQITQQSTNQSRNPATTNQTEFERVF
Sequence (O60563 whole entry partner): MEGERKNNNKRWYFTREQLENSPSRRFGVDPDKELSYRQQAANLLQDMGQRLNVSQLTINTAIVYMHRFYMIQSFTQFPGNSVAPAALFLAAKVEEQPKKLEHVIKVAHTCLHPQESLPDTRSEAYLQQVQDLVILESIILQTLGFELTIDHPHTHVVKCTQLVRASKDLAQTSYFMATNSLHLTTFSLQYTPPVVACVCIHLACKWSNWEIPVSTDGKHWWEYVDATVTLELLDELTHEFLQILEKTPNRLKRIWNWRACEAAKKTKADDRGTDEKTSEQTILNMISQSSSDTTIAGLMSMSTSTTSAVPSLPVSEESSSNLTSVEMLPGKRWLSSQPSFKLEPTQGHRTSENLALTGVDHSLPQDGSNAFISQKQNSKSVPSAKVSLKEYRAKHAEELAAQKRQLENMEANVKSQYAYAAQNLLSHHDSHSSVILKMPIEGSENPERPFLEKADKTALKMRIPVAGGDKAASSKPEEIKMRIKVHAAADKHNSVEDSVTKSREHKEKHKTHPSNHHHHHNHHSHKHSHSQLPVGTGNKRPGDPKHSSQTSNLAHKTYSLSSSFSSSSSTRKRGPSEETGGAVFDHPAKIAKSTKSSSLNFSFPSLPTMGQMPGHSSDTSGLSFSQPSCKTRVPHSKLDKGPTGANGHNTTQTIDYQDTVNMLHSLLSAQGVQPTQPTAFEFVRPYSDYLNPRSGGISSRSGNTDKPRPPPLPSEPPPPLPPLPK

IC50 [nM] | SMILES
46 | C[C@H](O)CNc1cccc(-c2cc(NC(=O)[C@@H]3CCCNC3)ncc2Cl)n1 [Example 31, (R)-Piperidine-3-carboxylic acid [5′-chloro-6-((S)-2-hydroxy-propylamino)-[2,4′]bipyridinyl-2′-yl]-amide]
< 8 | CC(C)C(=O)Nc1cc(-c2nc(NCC3CCOCC3)ccc2Cl)c(Cl)cn1 [Example 86, N-{3,5′-Dichloro-6-[(tetrahydro-pyran-4-ylmethyl)-amino]-[2,4′]bipyridinyl-2′-yl}-isobutyramide]
1 | CC1(C)CCC(C(=O)Nc2cc(-c3cccc(NCC4CCOCC4)n3)c(Cl)cn2)CN1 (stereo not shown) [Example 206, 6,6-Dimethyl-piperidine-3-carboxylic acid {5′-chloro-6-[(tetrahydro-pyran-4-ylmethyl)-amino]-[2,4′]bipyridinyl-2′-yl}-amide]
9 | O=C(Cc1cccnc1)Nc1cc(-c2cccc(NCC3CCOCC3)n2)c(Cl)cn1 [Example 66, N-{5′-Chloro-6-[(tetrahydro-pyran-4-ylmethyl)-amino]-[2,4′]bipyridinyl-2′-yl}-2-pyridin-3-yl-acetamide]
< 8 | CS(=O)(=O)N[C@H]1CC[C@@H](C(=O)Nc2cc(-c3nc(NCC4CCOCC4)ccc3Cl)c(Cl)cn2)C1 [Example 110, (1R,3S)-3-Methanesulfonylamino-cyclopentanecarboxylic acid {3,5′-dichloro-6-[(tetrahydro-pyran-4-ylmethyl)-amino]-[2,4′]bipyridinyl-2′-yl}-amide]
1 | CC(C)S(=O)(=O)N1CCC[C@H](C(=O)Nc2cc(-c3nc(NC[C@@H]4CCOC(C)(C)C4)ccc3Cl)c(Cl)cn2)C1 (single isomer, unassigned) [Example 172]
55 | O=C(Nc1cc(-c2cccc(NCC3CCOCC3)n2)c(Cl)cn1)[C@@H]1CNC[C@H](C(F)(F)F)C1 (single isomer, unassigned) [Example 183]
< 8 | CN(CC1CCOCC1)c1cccc(-c2cc(NC(=O)[C@@H]3CCCNC3)ncc2Cl)n1 [Example 35, (R)-Piperidine-3-carboxylic acid {5′-chloro-6-[methyl-(tetrahydro-pyran-4-ylmethyl)-amino]-[2,4′]bipyridinyl-2′-yl}-amide]
50 | CC(=O)NCCNc1cccc(-c2cc(NC(=O)[C@@H]3CCCNC3)ncc2Cl)n1 [Example 37, (R)-Piperidine-3-carboxylic acid [6-(2-acetylamino-ethylamino)-5′-chloro-[2,4′]bipyridinyl-2′-yl]-amide]
30 | O=C(Nc1cc(-c2nc(NCC3CCOCC3)ccc2Cl)c(F)cn1)[C@H]1CNCCO1 [Example 124, (R)-Morpholine-2-carboxylic acid {3-chloro-5′-fluoro-6-[(tetrahydro-pyran-4-ylmethyl)-amino]-[2,4′]bipyridinyl-2′-yl}-amide]
1 | CC1(C)CC(CNc2cccc(-c3cc(NC(=O)[C@@H]4CCNC4)ncc3Cl)n2)CCO1 (stereo partly drawn) [Example 188, (R)-Pyrrolidine-3-carboxylic acid {5′-chloro-6-[(2,2-dimethyl-tetrahydro-pyran-4-ylmethyl)-amino]-[2,4′]bipyridinyl-2′-yl}-amide]
1 | CC1(C)CO[C@@H](CNc2cccc(-c3cc(NC(=O)[C@@H]4CCCNC4)ncc3Cl)n2)CO1 (single isomer, unassigned) [Example 231]
< 8 | CC1(C)CC(CNc2ccc(Cl)c(-c3cc(NC(=O)[C@@H]4CCCNC4)ncc3Cl)n2)CCO1 (stereo partly drawn) [Example 132, (R)-Piperidine-3-carboxylic acid {3,5′-dichloro-6-[(2,2-dimethyl-tetrahydro-pyran-4-ylmethyl)-amino]-[2,4′]bipyridinyl-2′-yl}-amide]
134 | O=C(Nc1cc(-c2cccc(NCC3CCOCC3)n2)c(Cl)cn1)[C@H]1CNC[C@H]1O [Example 121, (3S,4S)-4-hydroxy-pyrrolidine-3-carboxylic acid {5′-chloro-6-[(tetrahydro-pyran-4-ylmethyl)-amino]-[2,4′]bipyridinyl-2′-yl}-amide]
1 | C[C@@H]1CC[C@@H](C(=O)Nc2cc(-c3cccc(NC[C@@H]4CCOC(C)(C)C4)n3)ccn2)CN1 (mixture of isomers) [Example 226, (3R,6R)-/(3S,6S)-6-Methyl-piperidine-3-carboxylic acid {6-[((R)-2,2-dimethyl-tetrahydro-pyran-4-ylmethyl)-amino]-[2,4′]bipyridinyl-2′-yl}-amide]
< 8 | O=C(Nc1cc(-c2cccc(NCC3COCCO3)n2)c(Cl)cn1)[C@@H]1CCCNC1 (stereo partly drawn) [Example 24, (R)-Piperidine-3-carboxylic acid {5′-chloro-6-[([1,4]dioxan-2-ylmethyl)-amino]-[2,4′]bipyridinyl-2′-yl}-amide]
2 | COC[C@@H]1CC[C@@H](C(=O)Nc2cc(-c3cccc(NCC4CCOCC4)n3)c(Cl)cn2)CN1 (single isomer, unassigned) [Example 235]
1 | COC1(CNc2nc(-c3cc(NC(=O)C4CCC(C)NC4)ncc3Cl)ccc2F)CCOCC1 (stereo not shown) [Example 261, 6-Methyl-piperidine-3-carboxylic acid {5′-chloro-5-fluoro-6-[(4-methoxy-tetrahydro-pyran-4-ylmethyl)-amino]-[2,4′]bipyridinyl-2′-yl}-amide]

same assay, conditions: Cdk9_cyclinT1_IC50, generated using one of the two Cdk9/cyclinT1 assays (IMAP or Alpha Screen), not specified per value; ATP 6 uM

IC50 [nM] | SMILES
< 8 | O=C(Nc1cc(-c2cc(NCC3CCOCC3)cnc2Cl)c(Cl)cn1)[C@@H]1CCCNC1 [Example 312, (R)-Piperidine-3-carboxylic acid {2,5′-dichloro-5-[(tetrahydro-pyran-4-ylmethyl)-amino]-[3,4′]bipyridinyl-2′-yl}-amide]
3 | O=C(Nc1cc(-c2cc(NCC3CCOCC3)cnc2Cl)c(Cl)cn1)[C@H]1CNCCO1 [Example 314, (R)-Morpholine-2-carboxylic acid {2,5′-dichloro-5-[(tetrahydro-pyran-4-ylmethyl)-amino]-[3,4′]bipyridinyl-2′-yl}-amide]
46 | COc1ccncc1-c1cc(NC(=O)[C@@H]2CCCNC2)ncc1Cl [Example 306, (R)-Piperidine-3-carboxylic acid (5′-chloro-4-methoxy-[3,4′]bipyridinyl-2′-yl)-amide]

system: neointima formation; experiment: not given; details: rats; cited from earlier work

SMILES | inhibition of neointima formation
COc1ccc(CNc2nc(N(CCO)CCO)nc3c2ncn3C(C)C)cc1 [CVT-313] | greater than 80%
